Test: molar heat capacity at constant pressure
Conditions: Liquid, Flow calorimetry

CC(C)C [2-methylpropane]
Conditions | molar heat capacity at constant pressure [J/K/mol]
303.53 K, 1050 kPa | 142.52
303.55 K, 1540 kPa | 141.88
303.56 K, 2000 kPa | 141.53
303.56 K, 3020 kPa | 140.13
303.57 K, 2500 kPa | 140.83
303.59 K, 9990 kPa | 135.77
303.62 K, 4030 kPa | 139.55
303.62 K, 4500 kPa | 139.32
303.62 K, 6500 kPa | 138.1
303.62 K, 7990 kPa | 136.88
303.63 K, 6010 kPa | 138.45
303.63 K, 7030 kPa | 137.69
303.63 K, 7530 kPa | 137.34
303.63 K, 8510 kPa | 136.7
303.63 K, 9510 kPa | 136.24
303.64 K, 5000 kPa | 139.03
303.64 K, 9000 kPa | 136.47
303.65 K, 5520 kPa | 138.8
303.7 K, 3480 kPa | 139.78
303.82 K, 11510 kPa | 134.38
303.82 K, 12000 kPa | 134.2
303.86 K, 10530 kPa | 135.37
303.86 K, 11040 kPa | 134.96
313.48 K, 1040 kPa | 142.81
313.48 K, 6480 kPa | 138.39
313.49 K, 3020 kPa | 141.12
313.49 K, 7500 kPa | 138.1
313.5 K, 5530 kPa | 139.09
313.5 K, 6030 kPa | 138.56
313.5 K, 7030 kPa | 138.27
313.5 K, 8040 kPa | 137.81
313.5 K, 8480 kPa | 137.69
313.51 K, 1540 kPa | 142.46
313.51 K, 2020 kPa | 141.93
313.51 K, 2540 kPa | 141.53
313.51 K, 4010 kPa | 140.6
313.51 K, 9020 kPa | 137.52
313.52 K, 4500 kPa | 140.07
313.52 K, 9480 kPa | 137.34
313.52 K, 10060 kPa | 137.28
313.54 K, 5080 kPa | 139.26
313.55 K, 10530 kPa | 136.59
313.57 K, 11480 kPa | 136.3
313.57 K, 12050 kPa | 136.12
313.58 K, 3550 kPa | 140.95
313.58 K, 11070 kPa | 136.47
323.11 K, 1040 kPa | 146.53
323.16 K, 1510 kPa | 146.24
323.22 K, 2020 kPa | 145.77
323.23 K, 3510 kPa | 144.03
323.24 K, 2540 kPa | 145.01
323.25 K, 3020 kPa | 144.49
323.25 K, 4020 kPa | 143.62
323.27 K, 10500 kPa | 139.49
323.28 K, 4550 kPa | 143.33
323.28 K, 10980 kPa | 139.44
323.3 K, 4970 kPa | 143.04
323.31 K, 11540 kPa | 139.38
323.32 K, 5500 kPa | 142.69
323.32 K, 5980 kPa | 142.17
323.33 K, 6470 kPa | 141.7
323.33 K, 7020 kPa | 141.3
323.34 K, 11990 kPa | 139.2
323.35 K, 7470 kPa | 141.24
323.37 K, 7990 kPa | 141
323.37 K, 9480 kPa | 140.07
323.38 K, 8510 kPa | 140.77
323.38 K, 9990 kPa | 139.67
323.39 K, 9000 kPa | 140.42
333.64 K, 1050 kPa | 151.06
333.65 K, 10550 kPa | 143.33
333.65 K, 10920 kPa | 143.21
333.66 K, 5960 kPa | 145.65
333.66 K, 11520 kPa | 143.15
333.67 K, 4020 kPa | 147.05
333.67 K, 4480 kPa | 146.76
333.67 K, 9460 kPa | 143.5
333.67 K, 11930 kPa | 143.15
333.68 K, 10010 kPa | 143.62
333.69 K, 1530 kPa | 150.48
333.69 K, 5010 kPa | 146.41
333.69 K, 7030 kPa | 145.31
333.7 K, 5530 kPa | 146.12
333.7 K, 6520 kPa | 145.54
333.71 K, 3530 kPa | 147.63
333.71 K, 8510 kPa | 144.43
333.72 K, 2020 kPa | 149.84
333.72 K, 2520 kPa | 149.2
333.72 K, 8970 kPa | 144.38
333.73 K, 3050 kPa | 148.79
333.73 K, 7550 kPa | 145.13
333.74 K, 8040 kPa | 145.13
343.71 K, 1520 kPa | 159.49
343.76 K, 2030 kPa | 157.92
343.79 K, 3510 kPa | 155.13
343.81 K, 2530 kPa | 157.34
343.81 K, 3030 kPa | 155.65
343.83 K, 4010 kPa | 154.02
343.84 K, 5010 kPa | 153.09
343.85 K, 4530 kPa | 153.62
343.85 K, 6000 kPa | 151.06
343.85 K, 7500 kPa | 149.49
343.85 K, 8000 kPa | 148.27
343.85 K, 8500 kPa | 147.98
343.85 K, 10990 kPa | 145.77
343.85 K, 12010 kPa | 145.07
343.86 K, 5490 kPa | 151.93
343.86 K, 6530 kPa | 150.36
343.86 K, 10020 kPa | 146.82
343.86 K, 11480 kPa | 145.48
343.87 K, 9000 kPa | 147.51
343.87 K, 10510 kPa | 146.47
343.88 K, 7020 kPa | 150.07
343.88 K, 9490 kPa | 147.4
353.82 K, 2510 kPa | 163.9
353.85 K, 3020 kPa | 162.57
353.85 K, 9000 kPa | 152.16
353.85 K, 9500 kPa | 151.7
353.86 K, 4510 kPa | 158.62
353.87 K, 4990 kPa | 158.09
353.87 K, 6010 kPa | 156.06
353.87 K, 7000 kPa | 153.97
353.87 K, 8520 kPa | 152.22
353.87 K, 10000 kPa | 151.35
353.87 K, 10510 kPa | 151

— the NIST ThermoML archive (doi:10.1016/j.jct.2017.03.033)
